The values below are quoted from earlier work in patent US12678540B2, “Chimeric peptide-modified SIS membrane, preparation method therefor and application thereof” (Beijing Biosis Healing Biological Technology Co., Ltd., priority 2021, dated 2026).

This series relates to fibroblasts, epithelial cells and endothelial cells.

As for “Hst1: member of the histatins (HSTs); sequence SHREFPFYGDYGS contains minimal elements to promote cell migration”, the “migration or adhesion of fibroblasts, epithelial cells and endothelial cells” value is reported as “promote the migration or adhesion”.
